Each structure is given as a SMILES string.

The nature of this data set: gradient 5% acetonitrile 3 min, to 50% in 2 min, to 85% in 15 min, held 3 min, 100 µL/min. To be noted: column: Zorbax Extend-C18 2.1 x 50 mm; eluents: water / acetonitrile, 0.1% formic acid. The method in brief: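 The system's dead and dwell volumes were 40 μL and 900 μL, with a Zorbax Extend-C18 column (2.1 × 50 mm, 1.8 μm) run at 100 μL/min in water and acetonitrile containing 0.1% formic acid each. Pure standards were analyzed in mixtures of ~100 molecules by HPLC–quadrupole time-of-flight mass spectrometry in positive and negative ionization mode. Retention time was assigned from computationally picked, manually inspected adduct peaks.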
Compound `COc1ccc(Cl)cc1NC(=O)CSc1ccc(-c2ccccn2)nn1` had an RP-LC retention time of 934 s.

As for `O=C(NC1CCCC1)c1cc(C2CC2)[nH]n1`, the RP-LC retention time stood at 692 s.

Turning to `CN(C)c1ccc(-c2nc(-c3cn(Cc4cccc(F)c4)nn3)no2)cc1`, the RP-LC retention time worked out at 1020 s.

Consider `Cc1nn(CC(=O)N2CCN(c3ccccn3)CC2)c(=O)c2cccn12`, for which the RP-LC retention time is 568 s.

For `Cc1nnc(-c2ccc3ccn(CC(=O)N4CCN(c5ncccn5)CC4)c3c2)o1`, the RP-LC retention time turned out to be 692 s.

`CNC(=O)[C@@H]1C[C@H](Oc2ccccc2)CN1C(=O)C1CC=CC1` gave an RP-LC retention time of 710 s.

Regarding `O=C(O)c1ccc(-c2c[nH]c3ncc(-c4ccccc4)cc23)cc1C1CCCC1`, the RP-LC retention time was found to be 700 s.

The compound `O=C(NCCCN1CCN(c2ccccc2)CC1)c1ccc(F)cc1F` had an RP-LC retention time of 590 s.

`O=C(NCc1cc(F)cc(F)c1)c1cn(-c2ccc(NC(=O)C3CC3)cn2)cn1` came in with an RP-LC retention time of 763 s.

`CCOc1ccccc1NC(=O)C1CCc2nc(N3CCCCC3)ncc2C1` (stereo not given) had an RP-LC retention time of 903 s.

The compound `Cc1noc(CNC(=O)C2CCN(C(=O)CSc3ccc(F)cc3)CC2)n1` had an RP-LC retention time of 645 s.

As for `Cc1nn(CC(=O)NCCN(C)C)c(=O)c2nc(-c3ccccc3)sc12`, the RP-LC retention time came to 601 s.

`Cc1cc(C)cc(Oc2nccn3c(=O)n(CC(=O)Nc4ccc(F)cc4)nc23)c1` showed an RP-LC retention time of 905 s.

Compound `Cc1ccc(S(=O)(=O)N2C(=O)CCC2C(=O)Nc2ccc(C)c(C)c2)cc1` (stereo not given) had an RP-LC retention time of 973 s.

In the case of `O=C(c1ccoc1)N1[C@H]2CC[C@@H]1c1cnc(-c3ccc(F)cc3)nc1C2`, the RP-LC retention time was 882 s.

With `CC(=O)N1CCC2(CC1)CC(N(C(=O)NC(C)C)C1CC1)CCO2` (stereo not given), the RP-LC retention time was determined as 653 s.

For `O=C(NC1CC1)c1ccc2ccnc(N3CCN(c4ccc(F)cc4)CC3)c2c1`, the RP-LC retention time stood at 688 s.

Turning to `CCc1nnc([C@@H]2CC(F)(F)CN2C(=O)Cn2ccc(C)n2)o1`, the RP-LC retention time stood at 646 s.

On to `O=C(Cn1nc2c(cc1=O)CCCC2)Nc1nc(-c2ccc3c(c2)OCCCO3)cs1`, for which the RP-LC retention time came to 862 s.

On to `CCOc1cc(-c2nc(C3CC(=O)N(c4ccc(F)c(Cl)c4)C3)no2)cc(OCC)c1OCC` (stereo not given), for which the RP-LC retention time was 1290 s.

For `CCn1ccc(C(=O)N2CCC3(CC2)C(=O)N(C)c2ccccc23)n1`, the RP-LC retention time worked out at 725 s.

For the compound `CC#CCOC(=O)c1c(C)nc2sc3c(c2c1N)CCC(O)C3` (stereo not given), the RP-LC retention time worked out at 662 s.

`O=C(Cc1ccc(S(=O)(=O)N2CCN(c3ccccn3)CC2)s1)N1CCCC1`: the RP-LC retention time was determined as 615 s.

Take `Cc1ccc2c(c1)C(=O)NC1(CCN(C(=O)Nc3ccc(C)c(C)c3)CC1)N2C`: the RP-LC retention time amounted to 796 s.

On to `CCOC(=O)c1cccc(NC(=O)Cc2csc3nc(-c4ccc(C)c(C)c4)cn23)c1`, for which the RP-LC retention time came out at 929 s.

`COC(=O)c1ccc(-c2nc3cnccn3c2Nc2ccc(C)c(Br)c2)cc1` gave an RP-LC retention time of 1040 s.

The compound `COc1ccc2c(c1)c(CN1CCC(C(=O)NCCN(C)Cc3ccccc3)CC1)cn2C` showed an RP-LC retention time of 590 s.

On to `Cc1ccccc1Nc1nc(-c2ccccc2)cs1`, for which the RP-LC retention time turned out to be 1120 s.

Consider `COCCN1CC2(CCN(S(=O)(=O)c3ccc(C)c(Cl)c3)CC2)C1c1ccccc1` (stereo not given), for which the RP-LC retention time was found to be 765 s.

`O=C(CN1N=C(C(=O)Nc2ccc(F)cc2)CCC1=O)Nc1ccc(F)c(F)c1`: the RP-LC retention time was 838 s.

`Cc1ccc2c(Nc3ccc(CC(=O)O)cc3)c(C(=O)N3CCCC3)cnc2n1` returned an RP-LC retention time of 572 s.

In turn, `CCN1C(=O)c2cccnc2Sc2cc(CNC(=O)c3ccc(F)cc3)ccc21` came in with an RP-LC retention time of 765 s.

Compound `COc1ccc(CNC(=O)c2cc3c(=O)n(C)ccc3n2C)cc1` displayed an RP-LC retention time of 664 s.

On to `CCN(C(=O)C1CCCN1S(=O)(=O)c1cc2c(cc1C)NC(=O)CO2)c1ccc(OC)cc1` (stereo not given), for which the RP-LC retention time came out at 782 s.

`O=C(NCc1ccco1)C1(c2ccc(F)cc2)CC1`: the RP-LC retention time worked out at 788 s.

`CCC(=O)N1CCc2cc(N3CC(C(=O)Nc4ccc(C)cc4)CC3=O)ccc21` (stereo not given) returned an RP-LC retention time of 786 s.

Take `COc1ccc(-c2noc(-c3nn(-c4ccc(C)cc4)ccc3=O)n2)cc1`: the RP-LC retention time was found to be 919 s.

For the compound `Cc1ccccc1NC(=O)N1CC(F)(F)C[C@H]1CN1CCCC1`, the RP-LC retention time came to 622 s.

Regarding `CCOCCCNC(=S)Nc1ccc2nc(N3CCN(CC)CC3)cc(C)c2c1`, the RP-LC retention time worked out at 578 s.

Regarding `Cc1cccc(N2CCN(C(=O)C3CCCN(c4ncnc5c4nc4n5CCCCC4)C3)CC2)c1C` (stereo not given), the RP-LC retention time was determined as 1090 s.

`CCCn1ccc2sc(C)c(C(=O)NCC3CCCCC3)c2c1=O` had an RP-LC retention time of 1010 s.

In the case of `Cc1ccc(N2CCCS2(=O)=O)cc1NS(=O)(=O)c1c(C)noc1C`, the RP-LC retention time was 866 s.

Consider `Cc1ccc(-n2ccc(=O)c(-c3nc(-c4ccccc4C)no3)n2)cc1C`, for which the RP-LC retention time is 1060 s.

The compound `Cc1nc(-c2ccc3c(c2)CCN3C(=O)Cc2c[nH]c3ccccc23)cs1` gave an RP-LC retention time of 950 s.

As to `O=C(NC1CC1)c1cc(=O)[nH]c2c(Cl)cccc12`, the RP-LC retention time stood at 626 s.

`Cc1nn(C)cc1S(=O)(=O)Nc1ccc(C(F)(F)F)cc1` gave an RP-LC retention time of 753 s.

As to `Cc1cc(F)ccc1NC(=O)CN1C(=O)CCCc2cc(S(=O)(=O)N3CCCCC3)ccc21`, the RP-LC retention time is 959 s.

In turn, `Cc1cccc(-c2ncccc2CNS(=O)(=O)Cc2ccc(Cl)cc2)c1` showed an RP-LC retention time of 765 s.

`CS(=O)(=O)N1CCc2cc(NC(=O)Nc3ccc(Br)cc3F)ccc21` gave an RP-LC retention time of 954 s.

In the case of `Cc1csc(-c2cc(S(=O)(=O)N3CCc4ccccc4C3)c(C)s2)n1`, the RP-LC retention time is 1160 s.

The compound `CN(C)c1ccc(C(=O)N2CCC(COc3ccc(C(=O)NC4CC4)cc3)CC2)cc1` returned an RP-LC retention time of 779 s.

In turn, `Cc1ccc(-n2nc3c(=O)n(CC(=O)NC4CCCC4)nc(C)c3c2C)cc1` gave an RP-LC retention time of 795 s.

As for `COC(=O)CN1C(=O)C2CCCN2C(=O)c2ccccc21` (stereo not given), the RP-LC retention time came to 634 s.

As for `Cc1cc(-c2c(C)sc(C)c2S(=O)(=O)N2CCN(c3cccc(Cl)c3)CC2)n[nH]1`, the RP-LC retention time is 1040 s.

For the compound `CCOC(=O)c1ccc2c(c1)NCc1cccc(OC)c1O2`, the RP-LC retention time worked out at 1030 s.

Turning to `CC(C)c1cnc2c(c1SCc1ccccn1)c(=O)n(C)c(=O)n2C`, the RP-LC retention time amounted to 737 s.

Compound `Cc1ccc(CN(Cc2cc(=O)n3cc(Cl)ccc3n2)CC(C)C)cc1` showed an RP-LC retention time of 624 s.

Consider `O=C(c1ccco1)N1CCN(c2ccc(=O)n(-c3ccccc3)n2)CC1`, for which the RP-LC retention time stood at 701 s.

In turn, `CSc1ccccc1NS(=O)(=O)c1cc2c(s1)CCN(C(=O)C1CC1)C2` yielded an RP-LC retention time of 851 s.

In turn, `CC(C)CC(=O)NCC(c1ccccc1Cl)c1c[nH]c2ccccc12` (stereo not given) had an RP-LC retention time of 984 s.

Compound `COc1ccccc1N1CCN(S(=O)(=O)c2cc(-c3csc(C)n3)ccc2C)CC1` yielded an RP-LC retention time of 1160 s.

`COC(=O)c1ccc(C(=O)Nc2ccc(CC(=O)NC3CC3)cc2)cc1` registered an RP-LC retention time of 657 s.

With `O=C(NCC1CCCO1)C1CCN(Cc2cc3ccccc3n2Cc2ccccc2Cl)CC1` (stereo not given), the RP-LC retention time came out at 731 s.

`COc1ccc(NC(=O)N2CCN(CCn3c(C(C)C)nc4cccnc43)CC2)c(OC)c1`: the RP-LC retention time came out at 592 s.

The compound `CN1CCN(CCCNC(=O)c2cc3occc3c(Nc3ccc(Cl)cc3)n2)CC1` showed an RP-LC retention time of 620 s.

`CCc1noc2ncnc(NCCN(C)Cc3ccccc3)c12`: the RP-LC retention time was found to be 595 s.

`CCC(=O)c1cn(CC(=O)NCc2cc3c(cc2OC)OCCCO3)c2ccccc12` showed an RP-LC retention time of 837 s.

The compound `COc1ccc(-n2nc(-c3nc(-c4ccccn4)no3)c3ccccc3c2=O)cc1` displayed an RP-LC retention time of 946 s.

`Cc1cc(=O)n(CC(=O)NCc2ccccc2)c(N)n1` returned an RP-LC retention time of 570 s.

With `Cc1cc(NC(=O)c2ccccc2C(F)(F)F)sn1`, the RP-LC retention time worked out at 713 s.

For `CCCOc1nc2ccccc2nc1N1CCCC(C(=O)Nc2cc(C)cc(C)c2)C1` (stereo not given), the RP-LC retention time worked out at 1390 s.

The compound `O=C(c1ccc(N2CCCCC2)c(S(=O)(=O)N2CCCCC2)c1)N1CCN(c2ccccn2)CC1` showed an RP-LC retention time of 813 s.

In turn, `CCc1cc(C(=O)N2CCN(CC(C)C)CC2)nc2cc(-c3ccco3)nn12` yielded an RP-LC retention time of 734 s.

In the case of `COc1ccc(NC(=O)c2[nH]c3cc(C)sc3c2CN(C)C)cc1F`, the RP-LC retention time came to 680 s.

The compound `Nc1cc(C2CCN(S(=O)(=O)Cc3ccc(F)cc3)CC2)no1` had an RP-LC retention time of 747 s.

`O=C(c1ccn2c(-c3ccc(Cl)cc3)nnc2c1)N1CCN(c2ccccn2)CC1`: the RP-LC retention time was determined as 596 s.

In turn, `O=C(CN1CCc2ccccc2C1C(=O)N1CCCCC1)NCc1ccc(Cl)cc1` (stereo not given) displayed an RP-LC retention time of 910 s.

Take `O=C(NC1CC1)[C@@H]1C[C@H](Oc2cccnc2)CN1C(=O)c1cccs1`: the RP-LC retention time turned out to be 574 s.

In turn, `Cn1cc(CCN2CCN(C(=O)c3ccc(Br)cc3)CC2)c2cccnc21` displayed an RP-LC retention time of 620 s.

`O=C(NC1CC1)c1ccc(OCC2CCCN(C(=O)C3CC3)C2)cc1` (stereo not given) came in with an RP-LC retention time of 718 s.

The values are drawn from the METLIN SMRT retention time set (Domingo-Almenara et al. 2019).
